From ChEMBL document CHEMBL1130301, “Constrained -alanine based GpIIb/IIIa antagonists” (Bioorg Med Chem Lett, 1997)
Where a SMILES comes first, the peptide text is derived from it.

Target: Integrin alpha-IIb/beta-3 (Homo sapiens, UniProt P05106+P08514)
Experiment: Inhibition of fibrinogen binding to activated human platelets
Format: functional

Chain of Integrin alpha-IIb/beta-3 (P05106 27-788 limits assumed): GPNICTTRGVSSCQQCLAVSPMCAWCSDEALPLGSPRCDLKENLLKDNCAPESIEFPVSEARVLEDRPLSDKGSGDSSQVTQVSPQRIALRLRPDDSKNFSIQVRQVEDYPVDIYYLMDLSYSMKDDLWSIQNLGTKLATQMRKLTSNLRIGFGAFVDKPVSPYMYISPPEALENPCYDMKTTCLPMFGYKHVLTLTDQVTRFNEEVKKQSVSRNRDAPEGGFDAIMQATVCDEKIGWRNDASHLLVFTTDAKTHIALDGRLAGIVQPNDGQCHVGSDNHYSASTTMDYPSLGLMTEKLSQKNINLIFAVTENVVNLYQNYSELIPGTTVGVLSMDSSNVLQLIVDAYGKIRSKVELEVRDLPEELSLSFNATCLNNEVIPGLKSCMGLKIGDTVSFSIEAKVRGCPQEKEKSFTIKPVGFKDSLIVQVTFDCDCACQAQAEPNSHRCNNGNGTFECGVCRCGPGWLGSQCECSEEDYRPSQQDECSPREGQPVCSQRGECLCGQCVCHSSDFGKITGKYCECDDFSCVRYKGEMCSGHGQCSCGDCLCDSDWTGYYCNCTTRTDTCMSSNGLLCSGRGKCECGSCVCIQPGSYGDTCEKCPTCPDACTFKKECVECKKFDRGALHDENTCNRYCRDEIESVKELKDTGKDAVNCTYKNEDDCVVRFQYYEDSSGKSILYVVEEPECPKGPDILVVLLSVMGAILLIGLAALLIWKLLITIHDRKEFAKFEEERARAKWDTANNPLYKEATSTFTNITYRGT
Chain of Integrin alpha-IIb/beta-3 (P08514 32-887 limits assumed): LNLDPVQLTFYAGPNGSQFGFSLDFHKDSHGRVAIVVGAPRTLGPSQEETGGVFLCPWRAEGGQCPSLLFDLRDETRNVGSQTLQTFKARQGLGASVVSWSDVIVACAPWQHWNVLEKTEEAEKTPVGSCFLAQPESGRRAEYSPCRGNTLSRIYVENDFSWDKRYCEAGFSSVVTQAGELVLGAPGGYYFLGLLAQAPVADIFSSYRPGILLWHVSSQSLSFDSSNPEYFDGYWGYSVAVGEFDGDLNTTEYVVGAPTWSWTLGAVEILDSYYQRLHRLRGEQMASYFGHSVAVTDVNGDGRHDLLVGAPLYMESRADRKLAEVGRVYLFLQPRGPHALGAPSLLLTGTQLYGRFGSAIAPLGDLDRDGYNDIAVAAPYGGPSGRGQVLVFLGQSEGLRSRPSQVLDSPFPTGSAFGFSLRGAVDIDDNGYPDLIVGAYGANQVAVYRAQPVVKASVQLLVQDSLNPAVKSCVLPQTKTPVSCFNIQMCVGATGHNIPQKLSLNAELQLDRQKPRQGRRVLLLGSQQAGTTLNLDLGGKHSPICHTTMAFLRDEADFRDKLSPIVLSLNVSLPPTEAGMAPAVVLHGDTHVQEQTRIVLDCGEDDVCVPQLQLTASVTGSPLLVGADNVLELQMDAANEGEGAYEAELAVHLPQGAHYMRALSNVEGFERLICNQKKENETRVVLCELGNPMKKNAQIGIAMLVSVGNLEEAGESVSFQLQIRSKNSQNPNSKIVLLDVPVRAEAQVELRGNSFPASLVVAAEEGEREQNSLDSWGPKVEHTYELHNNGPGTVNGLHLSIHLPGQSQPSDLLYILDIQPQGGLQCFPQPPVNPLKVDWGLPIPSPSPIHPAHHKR
Chain of Integrin alpha-IIb/beta-3 (P08514 891-1039 limits assumed): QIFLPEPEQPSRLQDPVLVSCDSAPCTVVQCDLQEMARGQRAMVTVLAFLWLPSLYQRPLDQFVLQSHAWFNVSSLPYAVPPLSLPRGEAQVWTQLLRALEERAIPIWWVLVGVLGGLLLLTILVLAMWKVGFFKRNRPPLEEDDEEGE

| SMILES | IC50 |
| --- | --- |
| CC(C)[C@H](NC(=O)[C@H](CC(=O)O)NC(=O)C[C@H]1CCCN1C(=O)/C=C/c1ccc(NC(=N)N)cc1)C(=O)O | 26000 nM |
| CC(C)[C@H](NC(=O)[C@H](CC(=O)O)NC(=O)C[C@@H]1CCCCN1C(=O)/C=C/c1ccc(NC(=N)N)cc1)C(=O)O | 200 nM |
| CC(C)[C@H](NC(=O)[C@H](CC(=O)O)NC(=O)CCN(C)C(=O)/C=C/c1ccc(NC(=N)N)cc1)C(=O)O | 200 nM |
| CC(C)[C@H](NC(=O)[C@H](CC(=O)O)NC(=O)[C@H]1CCN(C(=O)/C=C/c2ccc(NC(=N)N)cc2)C1)C(=O)O | 3000 nM |
| CC(C)[C@H](NC(=O)[C@H](CC(=O)O)NC(=O)[C@@H]1CCCN(C(=O)/C=C/c2ccc(NC(=N)N)cc2)C1)C(=O)O | 70 nM |
| CC(C)[C@H](NC(=O)[C@H](CC(=O)O)NC(=O)CCCNC(=O)/C=C/c1ccc(NC(=N)N)cc1)C(=O)O | 70000 nM |
| CC(C)[C@H](NC(=O)[C@H](CC(=O)O)NC(=O)C[C@H]1CCCCN1C(=O)/C=C/c1ccc(NC(=N)N)cc1)C(=O)O | > 20000 nM |
| CCN(CCC(=O)N[C@@H](CC(=O)O)C(=O)N[C@H](C(=O)O)C(C)C)C(=O)/C=C/c1ccc(NC(=N)N)cc1 | 220 nM |
| CC(C)[C@H](NC(=O)[C@H](CC(=O)O)NC(=O)CNC(=O)/C=C/c1ccc(NC(=N)N)cc1)C(=O)O | 5000 nM |
| CC(C)[C@H](NC(=O)[C@H](CC(=O)O)NC(=O)CNC(=O)[C@@H](N)CCCN=C(N)N)C(=O)O (H-RGDV-OH) | 6000 nM |

Second part, the compound after the results:

| IC50 | SMILES |
| --- | --- |
| 1500 nM | CC(C)[C@H](NC(=O)[C@H](CC(=O)O)NC(=O)C[C@@H]1CCCN1C(=O)/C=C/c1ccc(NC(=N)N)cc1)C(=O)O |
| 240 nM | CC(C)[C@H](NC(=O)[C@H](CC(=O)O)NC(=O)CCNC(=O)/C=C/c1ccc(NC(=N)N)cc1)C(=O)O |
| 110 nM | CC(C)[C@H](NC(=O)[C@H](CC(=O)O)NC(=O)C[C@H]1CCN1C(=O)/C=C/c1ccc(NC(=N)N)cc1)C(=O)O |
| 120 nM | CC(C)[C@H](NC(=O)[C@H](CC(=O)O)NC(=O)[C@H]1CCCN(C(=O)/C=C/c2ccc(NC(=N)N)cc2)C1)C(=O)O |
| > 20000 nM | CC(C)[C@H](NC(=O)[C@H](CC(=O)O)NC(=O)C1CN(C(=O)/C=C/c2ccc(NC(=N)N)cc2)C1)C(=O)O |
| 3 nM | CC(C)[C@H](NC(=O)[C@H](CC(=O)O)NC(=O)[C@@H]1CCN(C(=O)/C=C/c2ccc(NC(=N)N)cc2)C1)C(=O)O |
